Results published in publication PMC11157491, “Novel Alaninamide Derivatives with Drug-like Potential for Development as Antiseizure and Antinociceptive Therapies—In Vitro and In Vivo Characterization” (ACS Chemical Neuroscience, 2024).

Experiments:
[1] = molecular target: CYP2D6 (Homo sapiens, UniProt P10635); conditions: 1 μM
[2] = molecular target: CYP3A4 (Homo sapiens, UniProt P08684); conditions: 1 μM
[3] = molecular target: 5-HT2C (h) (Homo sapiens, UniProt P28335); test: 5-HT2C agonist effect functional assay; format: cell-based; conditions: HEK293, human recombinant HEK-293 cell, read-out: % inhibition of control agonist response (5-HT2C agonist effect)
Experimental: (§1) Importantly, sodium or calcium conductance is often associated with the pathophysiology of epilepsy as well as neuropathic pain.[46]−[50] Therefore, both sodium and calcium ion channels are well-established molecular targets for structurally diverse ASMs such as LCS, lamotrigine, carbamazepine, oxcarbazepine, etc.[51] Consequently, we carried out binding and/or functional studies toward the sodium channel (site 2) and calcium Cav1.2 channel at high concentrations (100 μM) of 26 and 28 (Table 5). […] Next, 26 and 28 due to the presence of the phenylpiperazine moiety, which is a well-recognized pharmacophore for serotoninergic receptor (5-HTxR) ligands,[52] were evaluated for their influence on 5-HT2CR, where stimulation plays a key role for the antiseizure activity of lorcaserin (one of the newest ASMs).[6]
(§2) Binding/functional studies were carried out commercially in Eurofins Laboratories (Poitiers, France) and Eurofins Panlabs Discovery Services Taiwan, Ltd. (New Taipei City, Taiwan) using testing procedures that were reported previously (for details, see Table S2).
(§3) Table S2. Radioligand binding and functional assays. […]
5-HT2C (agonist effect)
(§4) Assays were performed commercially in Eurofins Laboratories ( Poitiers, France) or Eurofins Panlabs Discovery Services
(§5) Taiwan, Ltd. (New Taipei City, Taiwan).

[4] = HepG2 cell viability (hepatotoxicity); format: cell-based, human; conditions: human, HepG2 hepatoma cells; at 1.56 μM, 48 h; read-out: HepG2 viability (% of control ± SD)
Experimental: (§6) The in vitro safety tests were performed with the use of a hepatoma HepG2 cell line to estimate the hepatotoxic potential of the tested compounds.

[5] = tested on: HepG2 cell line; test: HepG2 cell viability (hepatotoxicity); format: cell-based, human; conditions: for cell survival: HepG2, 100 μM; for concentration from which a statistically significant decrease of cell viability was observed: HepG2, 48 h
Experimental: as §6

[6] = tested on: human serum albumin (HSA) and α1-acid glycoprotein (AGP)
Experimental: The plasma protein binding: human serum albumin (HSA) and α1-acid glycoprotein (AGP) was evaluated by the commercial TRANSIL^XL PPB assay.

[7] = molecular target: T1, Cav1.2 (h) calcium ion channel (Homo sapiens, UniProt Q13936); test: Cav1.2 cell-based antagonist calcium flux assay; conditions: HEK293, human recombinant HEK-293 cell, read-out: % inhibition of control agonist response
T1 construct: Eurofins (contract assay)
T1 sequence (Q13936 whole entry): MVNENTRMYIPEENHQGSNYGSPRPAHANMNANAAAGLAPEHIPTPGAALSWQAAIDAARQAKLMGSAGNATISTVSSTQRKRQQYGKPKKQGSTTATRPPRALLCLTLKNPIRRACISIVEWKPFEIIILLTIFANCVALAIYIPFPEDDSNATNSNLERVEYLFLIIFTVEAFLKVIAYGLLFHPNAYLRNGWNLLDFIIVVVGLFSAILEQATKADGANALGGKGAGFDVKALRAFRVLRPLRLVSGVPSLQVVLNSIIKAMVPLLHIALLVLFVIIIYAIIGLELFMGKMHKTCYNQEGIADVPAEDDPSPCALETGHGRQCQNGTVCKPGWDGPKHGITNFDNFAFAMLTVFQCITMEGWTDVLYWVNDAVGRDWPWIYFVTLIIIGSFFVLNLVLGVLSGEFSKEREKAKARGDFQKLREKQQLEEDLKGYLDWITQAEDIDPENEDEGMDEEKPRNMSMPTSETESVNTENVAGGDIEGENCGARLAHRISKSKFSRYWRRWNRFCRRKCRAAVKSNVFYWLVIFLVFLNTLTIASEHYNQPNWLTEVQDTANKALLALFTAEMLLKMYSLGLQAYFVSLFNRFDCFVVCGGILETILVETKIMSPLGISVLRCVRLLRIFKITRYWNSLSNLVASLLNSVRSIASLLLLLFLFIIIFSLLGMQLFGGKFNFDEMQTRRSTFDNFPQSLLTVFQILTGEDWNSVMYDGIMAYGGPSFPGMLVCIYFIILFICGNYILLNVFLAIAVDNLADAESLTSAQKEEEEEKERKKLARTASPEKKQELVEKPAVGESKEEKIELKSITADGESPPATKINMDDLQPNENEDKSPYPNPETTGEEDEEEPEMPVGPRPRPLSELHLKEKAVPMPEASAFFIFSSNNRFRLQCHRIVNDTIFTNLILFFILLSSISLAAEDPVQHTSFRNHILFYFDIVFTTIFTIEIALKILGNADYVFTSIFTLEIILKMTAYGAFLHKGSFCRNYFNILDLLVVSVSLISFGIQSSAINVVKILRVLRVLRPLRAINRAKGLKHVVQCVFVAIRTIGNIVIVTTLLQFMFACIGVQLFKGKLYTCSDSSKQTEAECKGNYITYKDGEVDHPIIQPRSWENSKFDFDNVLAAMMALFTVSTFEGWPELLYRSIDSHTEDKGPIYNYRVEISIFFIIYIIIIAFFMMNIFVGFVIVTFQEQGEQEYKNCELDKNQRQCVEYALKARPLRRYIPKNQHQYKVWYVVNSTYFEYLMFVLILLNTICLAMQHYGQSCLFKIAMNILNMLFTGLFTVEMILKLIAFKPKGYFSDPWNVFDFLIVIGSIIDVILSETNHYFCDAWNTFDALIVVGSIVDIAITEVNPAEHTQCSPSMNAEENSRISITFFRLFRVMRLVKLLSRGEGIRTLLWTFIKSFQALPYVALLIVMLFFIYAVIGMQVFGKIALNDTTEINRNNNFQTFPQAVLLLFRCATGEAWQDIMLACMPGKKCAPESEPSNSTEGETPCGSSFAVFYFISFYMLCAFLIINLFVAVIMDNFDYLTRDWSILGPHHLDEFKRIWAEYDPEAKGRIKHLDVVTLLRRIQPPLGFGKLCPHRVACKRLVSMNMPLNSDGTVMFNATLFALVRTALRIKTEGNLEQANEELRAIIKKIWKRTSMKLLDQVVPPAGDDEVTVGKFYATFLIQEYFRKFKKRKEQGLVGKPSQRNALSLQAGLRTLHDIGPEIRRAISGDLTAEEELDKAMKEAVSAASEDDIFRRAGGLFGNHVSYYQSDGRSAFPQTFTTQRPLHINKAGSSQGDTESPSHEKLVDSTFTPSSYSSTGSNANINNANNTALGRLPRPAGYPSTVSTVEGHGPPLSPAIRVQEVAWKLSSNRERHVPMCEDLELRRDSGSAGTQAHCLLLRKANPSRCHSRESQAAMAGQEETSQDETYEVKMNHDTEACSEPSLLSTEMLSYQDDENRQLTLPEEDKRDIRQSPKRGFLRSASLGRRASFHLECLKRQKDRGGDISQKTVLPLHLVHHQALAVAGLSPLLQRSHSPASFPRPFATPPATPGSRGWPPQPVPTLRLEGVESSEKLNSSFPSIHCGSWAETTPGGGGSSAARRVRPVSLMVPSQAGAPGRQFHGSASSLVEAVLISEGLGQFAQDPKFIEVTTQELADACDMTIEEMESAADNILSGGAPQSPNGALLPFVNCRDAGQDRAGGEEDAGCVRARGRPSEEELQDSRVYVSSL
T1 sequence (Q08289 whole entry partner): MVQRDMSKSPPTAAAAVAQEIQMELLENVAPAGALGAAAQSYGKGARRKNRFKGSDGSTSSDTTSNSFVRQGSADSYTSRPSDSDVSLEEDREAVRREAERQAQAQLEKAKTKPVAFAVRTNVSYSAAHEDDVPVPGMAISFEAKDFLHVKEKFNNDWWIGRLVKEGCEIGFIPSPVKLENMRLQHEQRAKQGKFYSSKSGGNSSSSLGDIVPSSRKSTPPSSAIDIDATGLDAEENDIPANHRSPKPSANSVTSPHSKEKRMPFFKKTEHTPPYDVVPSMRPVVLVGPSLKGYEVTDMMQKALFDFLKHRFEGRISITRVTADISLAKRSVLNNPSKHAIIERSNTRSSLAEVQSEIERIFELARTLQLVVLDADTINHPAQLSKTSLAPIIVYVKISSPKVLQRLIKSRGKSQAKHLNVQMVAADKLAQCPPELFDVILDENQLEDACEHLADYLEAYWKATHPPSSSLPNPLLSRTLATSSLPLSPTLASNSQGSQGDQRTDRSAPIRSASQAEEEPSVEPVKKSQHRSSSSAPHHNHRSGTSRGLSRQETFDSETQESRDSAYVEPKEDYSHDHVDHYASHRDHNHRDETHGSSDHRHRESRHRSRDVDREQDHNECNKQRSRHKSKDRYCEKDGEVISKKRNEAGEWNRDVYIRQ
T1 sequence (P54289 25-956 partner limits assumed): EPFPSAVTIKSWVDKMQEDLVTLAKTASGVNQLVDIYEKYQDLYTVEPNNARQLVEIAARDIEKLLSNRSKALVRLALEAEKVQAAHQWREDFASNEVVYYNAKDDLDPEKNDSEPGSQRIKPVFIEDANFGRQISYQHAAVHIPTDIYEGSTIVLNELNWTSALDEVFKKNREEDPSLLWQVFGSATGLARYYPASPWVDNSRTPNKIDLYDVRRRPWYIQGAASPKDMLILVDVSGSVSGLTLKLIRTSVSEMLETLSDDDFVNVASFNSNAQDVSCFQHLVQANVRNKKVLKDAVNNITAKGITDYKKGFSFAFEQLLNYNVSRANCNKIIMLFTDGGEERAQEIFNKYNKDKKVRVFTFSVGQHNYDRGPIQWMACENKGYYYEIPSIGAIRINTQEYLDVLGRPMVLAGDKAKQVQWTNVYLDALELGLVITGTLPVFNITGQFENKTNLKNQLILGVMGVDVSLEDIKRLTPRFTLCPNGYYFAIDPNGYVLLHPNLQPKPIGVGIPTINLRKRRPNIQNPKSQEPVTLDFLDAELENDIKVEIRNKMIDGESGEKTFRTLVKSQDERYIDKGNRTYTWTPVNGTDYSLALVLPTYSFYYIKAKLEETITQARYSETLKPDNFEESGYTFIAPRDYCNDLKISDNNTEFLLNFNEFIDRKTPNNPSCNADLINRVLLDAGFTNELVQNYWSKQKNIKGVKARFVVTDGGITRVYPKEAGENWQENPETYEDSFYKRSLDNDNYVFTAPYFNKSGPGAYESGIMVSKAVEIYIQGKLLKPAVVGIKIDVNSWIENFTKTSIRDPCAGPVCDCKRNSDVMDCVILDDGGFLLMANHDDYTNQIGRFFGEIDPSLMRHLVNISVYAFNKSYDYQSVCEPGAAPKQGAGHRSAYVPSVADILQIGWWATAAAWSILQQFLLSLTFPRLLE
T1 sequence (P54289 957-1103 partner limits assumed): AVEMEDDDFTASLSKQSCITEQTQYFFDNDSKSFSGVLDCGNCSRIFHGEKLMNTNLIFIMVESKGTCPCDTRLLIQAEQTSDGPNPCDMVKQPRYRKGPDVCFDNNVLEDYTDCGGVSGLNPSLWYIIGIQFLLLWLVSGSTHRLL
Experimental: as §1, §2, §3
Cav1.2 (L-type) (h) calcium ion channel cell-based antagonist calcium flux assay […]
as §4, §5

[8] = tested on: mice; test: 6 Hz (44 mA) model of pharmacoresistant seizures; format: in vivo; conditions: Mus musculus, ip, pretreatment 0.5 h
Experimental: Based on the promising pharmacological data for 26 and 28, and especially potent protection in the 6 Hz (32 mA) seizure model, both compounds were tested subsequently in the 6 Hz seizure model, applying a higher current intensity of 44 mA (Table 3). Importantly, this test is recognized as one of the key animal models of pharmacoresistant seizures, utilized in the early stage of new ASMs’ development.
In the initial screening studies, four mice per group were randomly assigned to each experimental group (each mouse was used only once). To evaluate the ED50 or TD50 values, four groups consisting of eight animals were injected with various doses of tested compounds. The protective indexes (PIs) for the compounds investigated and reference ASMs were calculated by dividing the TD50 value, as determined in the chimney test, by the respective ED50 value, as determined in the MES, scPTZ, or 6 Hz (32 or 44 mA) tests (PI = TD50/ED50). The PIs are a measure of the potential therapeutic window of the tested agent.
All substances were suspended in Tween 80 (1% aqueous solution) and administered i.p. as a single injection at a dose of 10 mL/kg. On each day of experimentation, fresh solutions were prepared. […]

[9] = tested on: mice; test: Spontaneous locomotor activity; format: in vivo; conditions: all tested doses, i.p. 30 min before
Experimental: We aimed to test the influence of the test compound on spontaneous locomotor activity to investigate its sedative properties. The strong sedative activity of new compounds is considered an undesirable property, which may lead to an incorrect or ambiguous interpretation of the in vivo results.
Figure S3. […] The test compound or […]
vehicle (1% Tween 80 solution) were administered 30 min i.p. before the 30-min long evaluation of locomotor activity. The results are presented as bar plots showing the mean ± SEM. The statistical significance was evaluated by one-way ANOVA followed by Dunnett’s post hoc test: * p < 0.05, *** p < 0.001, n = 8–10 mice per […]
(1 picture or pasted object on this page, not shown here)

Sequence of CYP3A4 (P08684 whole entry): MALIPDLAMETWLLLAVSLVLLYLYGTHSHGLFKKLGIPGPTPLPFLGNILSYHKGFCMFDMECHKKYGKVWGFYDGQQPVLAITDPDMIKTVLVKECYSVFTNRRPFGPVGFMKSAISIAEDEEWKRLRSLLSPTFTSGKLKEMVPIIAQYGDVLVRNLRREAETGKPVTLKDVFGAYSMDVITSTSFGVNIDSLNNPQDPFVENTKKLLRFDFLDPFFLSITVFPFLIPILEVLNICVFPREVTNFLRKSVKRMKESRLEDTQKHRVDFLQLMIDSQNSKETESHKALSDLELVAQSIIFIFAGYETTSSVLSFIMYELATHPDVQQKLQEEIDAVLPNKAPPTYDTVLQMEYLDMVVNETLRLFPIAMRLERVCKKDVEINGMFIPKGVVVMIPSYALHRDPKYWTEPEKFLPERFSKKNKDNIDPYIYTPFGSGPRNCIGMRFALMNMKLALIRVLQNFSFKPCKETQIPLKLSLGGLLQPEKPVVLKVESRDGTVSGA
Sequence of CYP2D6 (P10635 whole entry): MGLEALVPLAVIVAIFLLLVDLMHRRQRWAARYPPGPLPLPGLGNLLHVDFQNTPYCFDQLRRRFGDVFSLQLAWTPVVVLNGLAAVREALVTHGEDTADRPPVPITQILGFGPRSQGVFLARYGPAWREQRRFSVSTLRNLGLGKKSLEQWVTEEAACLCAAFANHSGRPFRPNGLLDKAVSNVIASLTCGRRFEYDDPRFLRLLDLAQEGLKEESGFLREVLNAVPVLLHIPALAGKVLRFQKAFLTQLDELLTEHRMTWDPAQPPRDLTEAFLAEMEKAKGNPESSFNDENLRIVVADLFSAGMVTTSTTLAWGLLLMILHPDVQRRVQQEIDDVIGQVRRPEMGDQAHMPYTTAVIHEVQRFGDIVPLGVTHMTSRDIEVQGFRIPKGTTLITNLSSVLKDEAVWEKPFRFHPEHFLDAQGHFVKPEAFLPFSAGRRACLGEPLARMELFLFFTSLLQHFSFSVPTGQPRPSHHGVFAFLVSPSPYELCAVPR

SMILES: CC(=O)NC(C)C(=O)N1CCN(c2cccc(C(F)(F)F)c2)CC1 (stereo not shown) [Compound 26, N-(1-oxo-1-(4-(3-(Trifluoromethyl)phenyl)piperazin-1-yl)propan-2-yl)acetamide]
- CYP2D6 activity (% of control ± SD) [1]: 122.8 ± 11.7%
- CYP3A4 activity (% of control ± SD) [2]: 114.1 ± 8.7%
- inhibition at 10 µM [3]: 0.5%
- viability at 48 h, 1.56 µM [4]: 104 ± 8.8%
- cell survival [5]: approximately 40%
- concentration from which a statistically significant decrease of cell viability was observed [5]: 12.5 µM
- plasma protein binding—KD [6]: 1670.0 µM
- inhibition at 100 µM [7]: 7%
- ED50 [8]: 29.9 mg/kg

SMILES: CC(=O)NC(C)C(=O)N1CCN(c2cccc(OC(F)(F)F)c2)CC1 (stereo not shown) [Compound 28, N-(1-oxo-1-(4-(3-(Trifluoromethoxy)phenyl)piperazin-1-yl)propan-2-yl)acetamide]
- CYP2D6 activity (% of control ± SD) [1]: 115.0 ± 4.5%
- CYP3A4 activity (% of control ± SD) [2]: 91.3 ± 12.7%
- inhibition at 10 µM [3]: 0.1%
- viability at 48 h, 1.56 µM [4]: 88.2 ± 16.1%
- cell survival [5]: approximately 40%
- concentration from which a statistically significant decrease of cell viability was observed [5]: 25 µM
- spontaneous locomotor activity [9]: decreased spontaneous locomotor activity
- plasma protein binding—KD [6]: 1260.0 µM
- inhibition at 100 µM [7]: -7.9%
- ED50 [8]: 29.5 mg/kg
